Test results reported in patent US10508104B2, “6-hydroxy-5-(phenyl/heteroarylsulfonyl)pyrimidin-4(1H)-one as APJ agonists” (Bristol-Myers Squibb Company, priority 2016, dated 2019).
Where two headings read alike, the source gives them in different places.

Biological target: human APJ receptor (Homo sapiens (Human), UniProt P35414)
Assay: Intracellular cAMP accumulation assay (APJ hcAMP, HTRF)
Format: cell-based
Details: read-out: Human APJ cAMP EC50 Potency range
Outline: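 HEK293 cells stably expressing human APJ, 5,000 per well, incubated 30 min at rt with compound, […] and 2 μM forskolin. cAMP measured by HTRF against a cAMP standard curve as inhibition of forskolin-driven production. EC50 from variable-slope sigmoidal fit.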

[1] = HEK293 cells stably expressing human APJ receptor, inhibition of forskolin-mediated cAMP production

human APJ receptor, sequence (P35414 whole entry): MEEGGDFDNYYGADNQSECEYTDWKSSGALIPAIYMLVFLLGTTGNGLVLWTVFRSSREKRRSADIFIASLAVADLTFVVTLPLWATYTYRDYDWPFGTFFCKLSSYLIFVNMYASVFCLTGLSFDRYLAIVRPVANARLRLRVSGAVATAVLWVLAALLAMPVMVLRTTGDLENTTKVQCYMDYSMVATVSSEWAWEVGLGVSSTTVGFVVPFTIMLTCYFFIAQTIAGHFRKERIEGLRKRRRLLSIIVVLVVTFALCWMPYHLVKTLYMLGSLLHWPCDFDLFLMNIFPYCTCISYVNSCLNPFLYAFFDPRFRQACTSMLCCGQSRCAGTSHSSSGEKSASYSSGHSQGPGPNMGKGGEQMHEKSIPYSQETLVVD

Structure (SMILES) | EC50 (human APJ, cAMP accumulation) [nM] | EC50 [1] [nM]
CCOCc1nc(=O)c(S(=O)(=O)c2ccc(-c3ccc(F)nc3)c(F)c2)c(O)n1[C@@H](COC)c1ccccc1 [Example 341, 2-(ethoxymethyl)-5-[3-fluoro-4-(6-fluoropyridin-3-yl)benzenesulfonyl]-6-hydroxy-1-[(1R)-2-methoxy-1-phenylethyl]-1,4-dihydropyrimidin-4-one] | 0.01 to 10 | –
CCOCc1nc(=O)c(S(=O)(=O)c2ccc(-c3ccnc(F)c3C)cc2)c(O)n1[C@H]1CCOc2ccccc21 [Example 342, 1-[(4S)-3,4-dihydro-2H-1-benzopyran-4-yl]-2-(ethoxymethyl)-5-[4-(2-fluoro-3-methylpyridin-4-yl)benzenesulfonyl]-6-hydroxy-1,4-dihydropyrimidin-4-one] | 10 to 100 | –
CCOCc1nc(=O)c(S(=O)(=O)c2ccc(-c3ccnc(F)c3C)c(F)c2)c(O)n1[C@@H](COC)c1cccc(C#N)c1 [Example 343, 3-[(1R)-1-[2-(ethoxymethyl)-5-[3-fluoro-4-(2-fluoro-3-methylpyridin-4-yl)benzenesulfonyl]-6-hydroxy-4-oxo-1,4-dihydropyrimidin-1-yl]-2-methoxyethyl] benzonitrile] | 0.01 to 10 | –
CCOCc1nc(=O)c(S(=O)(=O)c2ccc(-c3ccc(F)nc3C)c(F)c2)c(O)n1[C@@H](COC)c1cccc(C#N)c1 [Example 344, 3-[(1R)-1-[2-(ethoxymethyl)-5-[3-fluoro-4-(6-fluoro-2-methylpyridin-3-yl)benzenesulfonyl]-6-hydroxy-4-oxo-1,4-dihydropyrimidin-1-yl]-2-methoxyethyl] benzonitrile] | 0.01 to 10 | –
CCOCc1nc(=O)c(S(=O)(=O)c2ccc(-c3ccncc3C)c(F)c2)c(O)n1[C@@H](COC)c1cccc(C#N)c1 [Example 345, 3-[(1R)-1-[2-(ethoxymethyl)-5-[3-fluoro-4-(3-methylpyridin-4-yl)benzenesulfonyl]-6-hydroxy-4-oxo-1,4-dihydropyrimidin-1-yl]-2-methoxyethyl] benzonitrile] | 0.01 to 10 | –
CCOCc1nc(=O)c(S(=O)(=O)c2ccc(-c3ccnc(F)c3C)c(F)c2)c(O)n1C(COC)c1cccc(F)c1 (stereo not drawn) [Example 346, 2-(ethoxymethyl)-5-[3-fluoro-4-(2-fluoro-3-methylpyridin-4-yl)benzenesulfonyl]-1-[1-(3-fluorophenyl)-2-methoxyethyl]-6-hydroxy-1,4-dihydropyrimidin-4-one] | 0.01 to 10 | –
CCOCc1nc(=O)c(S(=O)(=O)c2ccc(-c3ccc(F)nc3C)c(F)c2)c(O)n1C(COC)c1cccc(F)c1 (stereo not drawn) [Example 347, 2-(ethoxymethyl)-5-[3-fluoro-4-(6-fluoro-2-methylpyridin-3-yl)benzenesulfonyl]-1-[1-(3-fluorophenyl)-2-methoxyethyl]-6-hydroxy-1,4-dihydropyrimidin-4-one] | 0.01 to 10 | –
CCCCc1nc(=O)c(S(=O)(=O)c2ccc(C3CC3)cc2)c(O)n1[C@@H](CC)c1cccc(C#N)c1 [Example 348, 3-[(1S)-1-[2-butyl-5-(4-cyclopropylbenzene-sulfonyl)-6-hydroxy-4-oxo-1,4-dihydropyrimidin-1-yl]propyl]benzonitrile] | 0.01 to 10 | –
COC[C@@H](c1ccccc1)n1c(C2CCCO2)nc(=O)c(S(=O)(=O)c2ccc(Br)cc2)c1O (stereo partly drawn) [Example 349, 5-(4-bromobenzenesulfonyl)-6-hydroxy-1-[(1R)-2-methoxy-1-phenylethyl]-2-(oxolan-2-yl)-1,4-dihydropyrimidin-4-one] | 100 to 300 | –
C=C(c1cccc(C#N)c1)n1c(CCCC)nc(=O)c(S(=O)(=O)c2ccc(-c3ccncc3C)cc2)c1O [Example 360, 3-(1-(2-butyl-6-hydroxy-5-((4-(3-methylpyridin-4-yl)phenyl)sulfonyl)-4-oxopyrimidin-1 (4H)-yl)vinyl)benzonitrile] | – | 0.01 to 10
CCOCc1nc(=O)c(S(=O)(=O)c2ccc(C(C)(C)C)cc2)c(O)n1-c1c(CC)cccc1CC [Example 361, 5-(4-tert-butylbenzenesulfonyl)-1-(2,6-diethylphenyl)-2-(ethoxymethyl)-6-hydroxy-1,4-dihydropyrimidin-4-one] | – | 0.01 to 10
CCCCc1nc(=O)c(S(=O)(=O)c2ccc(C(C)(C)C)cc2)c(O)n1-c1c(CC)cccc1CC [Example 362, 2-butyl-5-(4-tert-butylbenzenesulfonyl)-1-(2,6-diethylphenyl)-6-hydroxy-1,4-dihydropyrimidin-4-one] | – | 0.01 to 10
CCCCc1nc(=O)c(S(=O)(=O)c2ccc(C(C)(C)C)cc2)c(O)n1-c1c(OC)cccc1OC [Example 363, 2-butyl-5-(4-tert-butylbenzenesulfonyl)-1-(2,6-dimethoxyphenyl)-6-hydroxy-1,4-dihydropyrimidin-4-one] | – | 0.01 to 10
CCCCc1nc(=O)c(S(=O)(=O)[C@H]2CC[C@H](OCc3ccccc3)CC2)c(O)n1-c1c(CC)cccc1CC [Example 364, 2-butyl-1-(2,6-diethylphenyl)-6-hydroxy-5-{[(1r,4r)-4-(benzyloxy)cyclohexyl]sulfonyl}-1,4-dihydropyrimidin-4-one] | – | 0.01 to 10
CCCCc1nc(=O)c(S(=O)(=O)[C@H]2CC[C@@H](OCc3ccccc3)CC2)c(O)n1-c1c(CC)cccc1CC [Example 365, 2-butyl-1-(2,6-diethylphenyl)-6-hydroxy-5-{[(1s,4s)-4-(benzyloxy)cyclohexyl]sulfonyl}-1,4-dihydropyrimidin-4-one] | – | 0.01 to 10
CCCCc1nc(=O)c(S(=O)(=O)[C@H]2CC[C@H](OCc3ccccc3)CC2)c(O)n1-c1c(OC)cccc1OC [Example 366, 2-butyl-1-(2,6-dimethoxyphenyl)-6-hydroxy-5-{[(1r,4r)-4-(benzyloxy)cyclohexyl]sulfonyl}-1,4-dihydropyrimidin-4-one] | – | 0.01 to 10
CCCCc1nc(=O)c(S(=O)(=O)[C@H]2CC[C@@H](OCc3ccccc3)CC2)c(O)n1-c1c(OC)cccc1OC [Example 367, 2-butyl-1-(2,6-dimethoxyphenyl)-6-hydroxy-5-{[(1s,4s)-4-(benzyloxy)cyclohexyl]sulfonyl}-1,4-dihydropyrimidin-4-one] | – | 0.01 to 10
COC[C@@H](c1cc(F)cc(F)c1)n1c(COC(C)C)nc(=O)c(S(=O)(=O)c2ccc(Br)cc2)c1O [Example 368, 5-(4-bromobenzenesulfonyl)-1-[(1R)-1-(3,5-difluorophenyl)-2-methoxyethyl]-6-hydroxy-2-[(propan-2-yloxy)methyl]-1,4-dihydropyrimidin-4-one] | – | 0.01 to 10
CC[C@@H](c1cccc(C#N)c1)n1c(COC(C)C)nc(=O)c(S(=O)(=O)c2ccc(Br)cc2)c1O [Example 369, 3-[(1S)-1-[5-(4-bromobenzenesulfonyl)-6-hydroxy-4-oxo-2-[(propan-2-yloxy)methyl]-1,4-dihydropyrimidin-1-yl]propyl]benzonitrile] | – | 0.01 to 10
CCOCc1nc(=O)c(S(=O)(=O)c2ccc(Br)cc2)c(O)n1[C@@H](COC)c1cc(F)cc(F)c1 [Example 370, 5-(4-bromobenzenesulfonyl)-1-[(1R)-1-(3,5-difluorophenyl)-2-methoxyethyl]-2-(ethoxymethyl)-6-hydroxy-1,4-dihydropyrimidin-4-one] | – | 0.01 to 10
COC[C@@H](c1cccc(C#N)c1)n1c(COC(C)C)nc(=O)c(S(=O)(=O)c2ccc(Br)cc2)c1O [Example 371, 3-[(1R)-1-[5-(4-bromobenzenesulfonyl)-6-hydroxy-4-oxo-2-[(propan-2-yloxy)methyl]-1,4-dihydropyrimidin-1-yl]-2-methoxyethyl]benzonitrile] | – | 0.01 to 10
CC(C)OCc1nc(=O)c(S(=O)(=O)c2ccc(Br)cc2)c(O)n1[C@H](c1cccc(C#N)c1)C1CC1 [Example 372, 3-[(S)-[5-(4-bromobenzenesulfonyl)-6-hydroxy-4-oxo-2-[(propan-2-yloxy)methyl]-1,4-dihydropyrimidin-1-yl](cyclopropyl)methyl] benzonitrile] | – | 0.01 to 10
CCOCc1nc(=O)c(S(=O)(=O)c2ccc(-c3ccnc(F)c3C)c(F)c2)c(O)n1C(COC)c1cccc(F)c1 (stereo not drawn) [Example 373, 2-(ethoxymethyl)-5-[3-fluoro-4-(2-fluoro-3-methylpyridin-4-yl)benzenesulfonyl]-1-[1-(3-fluorophenyl)-2-methoxyethyl]-6-hydroxy-1,4-dihydropyrimidin-4-one] | – | 0.01 to 10
CCOCc1nc(=O)c(S(=O)(=O)c2ccc(-c3ccnc(F)c3C)c(F)c2)c(O)n1C(COC)c1cccc(F)c1 (stereo not drawn) [Example 374, 2-(ethoxymethyl)-5-[3-fluoro-4-(2-fluoro-3-methylpyridin-4-yl)benzenesulfonyl]-1-[1-(3-fluorophenyl)-2-methoxyethyl]-6-hydroxy-1,4-dihydropyrimidin-4-one] | – | 0.01 to 10
CCOCc1nc(=O)c(S(=O)(=O)c2ccc(-c3ccc(F)nc3C)c(F)c2)c(O)n1C(COC)c1cccc(F)c1 (stereo not drawn) [Example 375, 2-(ethoxymethyl)-5-[3-fluoro-4-(6-fluoro-2-methylpyridin-3-yl)benzenesulfonyl]-1-[1-(3-fluorophenyl)-2-methoxyethyl]-6-hydroxy-1,4-dihydropyrimidin-4-one] | – | 0.01 to 10
CCOCc1nc(=O)c(S(=O)(=O)c2ccc(-c3ccc(F)nc3C)c(F)c2)c(O)n1C(COC)c1cccc(F)c1 (stereo not drawn) [Example 376, 2-(ethoxymethyl)-5-[3-fluoro-4-(6-fluoro-2-methylpyridin-3-yl)benzenesulfonyl]-1-[1-(3-fluorophenyl)-2-methoxyethyl]-6-hydroxy-1,4-dihydropyrimidin-4-one] | – | 0.01 to 10
COC[C@@H](c1cc(F)cc(F)c1)n1c(COC(C)C)nc(=O)c(S(=O)(=O)c2ccc(-c3ccncc3C)cc2)c1O [Example 377, 1-[(1R)-1-(3,5-difluorophenyl)-2-methoxyethyl]-6-hydroxy-5-[4-(3-methylpyridin-4-yl)benzenesulfonyl]-2-[(propan-2-yloxy)methyl]-1,4-dihydropyrimidin-4-one] | – | 0.01 to 10
